Source: US11639353B2, “Cyclobutanes- and azetidine-containing mono and spirocyclic compounds as αV integrin inhibitors” (BRISTOL-MYERS SQUIBB COMPANY, priority 2016, dated 2023)
Where a name gives a salt, the structure may show the parent alone.

molecular target: T1, human αVβ6 (Homo sapiens, UniProt P06756+P18564); assay: human αVβ6 HTRF binding assay; conditions: alternatively SPA-based assay
T1 construct: purchased R & D systems 3817-AV
Experimental: All binding assays used the HTRF (homogeneous time resolved fluorescence) technology from Cisbio International, therefore all assays are described as HTRF binding assays. The assay results for the Examples are listed above together with the characterization data. The HTRF binding assays are established for the following integrins: human αVβ6, human αVβ1, human αVβ3, human αVβ5, and human αVβ8. All assays used the following assay buffer: 20 mM Tris, pH 7.4, 1 mM MgCl2, 1 mM MnCl2, 0.01% Tween 20, and 0.01% BSA. Alternatively, a SPA-based assay was used for evaluation of receptor binding.
The following describes the components and a representative procedure for the human αVβ6 HTRF binding assay: Recombinant human αVβ6 Integrin (R & D systems, 3817-AV) was biotinylated. Biotinylated human αVβ6 Integrin was added to assay vessel at a final concentration of 1.25 nM. FITC-conjugated fibronectin (Cytoskeleton, FNR02) was then added at the final concentration of 5 nM. The mixture was centrifuged at 600 rpm for three minutes using Thermo Fisher Heraeus Multifuge X3 centrifuge and then incubated at RT for an hour. Streptavidin Terbium (Cisbio international 610STLB) was then added at the final concentration of 0.625 nM. The resulting mixture was centrifuged at 600 rpm for three minutes using Thermo Fisher Heraeus Multifuge X3 centrifuge and then incubated at room temperature overnight in dark before reading HTRF signals.
The SPA-based assay was carried out according to the protocol and procedures similar to the ones described in the following reference with appropriate modifications to agents and ligands which are readily understood by one skilled in the art: Pachter J A, Zhang R, Mayer-Ezell R., “Scintillation proximity assay to measure binding of soluble fibronectin to antibody-captured αVβ1 integrin” Anal Biochem. 1995 Sep. 1; 230(1):101-7.

T1 sequence (P06756 31-992 limits assumed): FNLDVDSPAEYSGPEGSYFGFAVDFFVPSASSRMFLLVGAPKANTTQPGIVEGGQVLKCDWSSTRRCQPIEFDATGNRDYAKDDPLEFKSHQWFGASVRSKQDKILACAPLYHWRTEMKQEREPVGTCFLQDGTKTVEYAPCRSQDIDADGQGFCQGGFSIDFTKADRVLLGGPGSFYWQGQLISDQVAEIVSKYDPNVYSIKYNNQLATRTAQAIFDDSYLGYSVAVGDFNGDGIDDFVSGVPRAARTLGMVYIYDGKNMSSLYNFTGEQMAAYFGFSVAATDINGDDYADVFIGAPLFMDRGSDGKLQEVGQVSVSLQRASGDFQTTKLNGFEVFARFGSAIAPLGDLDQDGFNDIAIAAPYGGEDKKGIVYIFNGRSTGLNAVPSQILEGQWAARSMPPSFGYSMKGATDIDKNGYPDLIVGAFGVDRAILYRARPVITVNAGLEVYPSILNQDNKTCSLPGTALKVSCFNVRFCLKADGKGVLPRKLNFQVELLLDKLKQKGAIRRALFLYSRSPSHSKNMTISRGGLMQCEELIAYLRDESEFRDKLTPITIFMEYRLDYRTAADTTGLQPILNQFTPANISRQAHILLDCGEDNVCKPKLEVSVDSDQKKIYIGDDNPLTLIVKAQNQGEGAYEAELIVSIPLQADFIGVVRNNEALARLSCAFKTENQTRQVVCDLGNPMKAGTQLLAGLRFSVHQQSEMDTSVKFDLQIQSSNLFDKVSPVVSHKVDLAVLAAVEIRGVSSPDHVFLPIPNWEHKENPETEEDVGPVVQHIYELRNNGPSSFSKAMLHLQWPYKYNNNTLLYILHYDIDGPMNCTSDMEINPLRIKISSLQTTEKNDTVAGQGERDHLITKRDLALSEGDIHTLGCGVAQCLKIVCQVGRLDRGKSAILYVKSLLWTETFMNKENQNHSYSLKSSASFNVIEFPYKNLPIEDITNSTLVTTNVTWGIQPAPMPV
T1 sequence (P18564 22-707 limits assumed): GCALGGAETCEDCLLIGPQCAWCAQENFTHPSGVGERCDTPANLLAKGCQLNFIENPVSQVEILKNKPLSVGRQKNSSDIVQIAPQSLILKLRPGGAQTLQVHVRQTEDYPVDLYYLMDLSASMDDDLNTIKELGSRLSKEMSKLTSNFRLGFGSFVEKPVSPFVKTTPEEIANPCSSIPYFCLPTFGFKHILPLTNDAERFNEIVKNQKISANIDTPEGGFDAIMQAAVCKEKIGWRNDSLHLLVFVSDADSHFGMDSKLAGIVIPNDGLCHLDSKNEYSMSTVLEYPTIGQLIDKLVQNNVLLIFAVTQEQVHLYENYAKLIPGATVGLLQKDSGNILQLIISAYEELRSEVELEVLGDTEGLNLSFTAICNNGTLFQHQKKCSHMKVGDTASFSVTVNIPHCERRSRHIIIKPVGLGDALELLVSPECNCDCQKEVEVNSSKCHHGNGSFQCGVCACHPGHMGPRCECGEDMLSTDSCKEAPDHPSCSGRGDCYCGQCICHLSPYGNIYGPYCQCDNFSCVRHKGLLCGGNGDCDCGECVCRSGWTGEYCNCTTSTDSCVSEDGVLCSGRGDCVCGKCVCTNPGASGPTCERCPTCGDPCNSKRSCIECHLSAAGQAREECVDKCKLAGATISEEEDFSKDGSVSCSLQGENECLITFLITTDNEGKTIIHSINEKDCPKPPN

| IC50 | Compound |
| --- | --- |
| 1.4 nM | O=C(O)C[C@@H](c1cc(F)cc(F)c1)N1CC(CCCCc2ccc3c(n2)NCCC3)C1 [Example 152] |
| 18 nM | Cc1cc(C)c(S(=O)(=O)N[C@@H](CN2CC(CCCc3ccc4c(n3)NCCC4)C2=O)C(=O)O)c(C)c1 (single isomer, unassigned) [Example 185] |
| 1.1 nM | COc1ccc([C@H](CC(=O)O)NC2CN(CCCc3ccc4c(n3)NCCC4)C2)cc1F [Example 72] |
| 3.9 nM | O=C(O)C[C@@H](c1ccc2c(c1)OCC2)N1CC(CCCCc2ccc3c(n2)NCCC3)C1=O (stereo partly shown) [Example 105] |
| 1.1 nM | O=C(O)C[C@@H](c1cnc2ccccc2c1)N1CC(CCCCc2ccc3c(n2)NCCC3)C1 [Example 153] |
| 3.7 nM | COc1ccc(C(CC(=O)O)N2CC3(CC(CCc4ccc5c(n4)NCCC5)C3)C2)cn1 (stereo not shown) [Example 205] |
| 38 nM | Cc1ncc([C@@H](CC(=O)O)N2CC(COCCc3ccc4c(n3)NCCC4)C2)cn1 [example 128, (R)-3-(2-methylpyrimidin-5-yl)-3-(3-((2-(5,6,7,8-tetrahydro-1,8-naphthyridin-2-yl)ethoxy)methyl)azetidin-1-yl)propanoic acid] |
| 3.34 nM | O=C(O)[C@H](CN1CC(CCCc2ccc3c(n2)NCCC3)C1=O)NS(=O)(=O)c1ccc(F)cc1 (single isomer, unassigned) [Example 188] |
| 0.5 nM | COc1ccc([C@H](CC(=O)O)NC2CN(CCCc3ccc4c(n3)NCCC4)C2)cn1 [Example 11, (S)-3-(6-Methoxypyridin-3-yl)-3-((1-(3-(5,6,7,8-tetrahydro-1,8-naphthyridin-2-yl)propyl)azetidin-3-yl)amino)propanoic acid] |
| 4400 nM | COc1ccc(C(NC(=O)C2CC(CCc3ccc4c(n3)NCCC4)C2)C(C)(C)C(=O)O)cn1 (stereo not shown) [Example 192] |
| 7.4 nM | O=C(O)CCN(C(=O)OCc1ccccc1)C1CN(CCCc2ccc3c(n2)NCCC3)C1 [Example 119] |
| 6.8 nM | Cc1ncc(C(CC(=O)O)N2CC3(CC(Cc4ccc5c(n4)NCCC5)C3)C2)cn1 (stereo not shown) [Example 209, 3-(2-methylpyrimidin-5-yl)-3-(6-((5,6,7,8-tetrahydro-1,8-naphthyridin-2-yl)methyl)-2-azaspiro[3.3]heptan-2-yl)propanoic acid] |
| 3300 nM | O=C(O)C[C@H](NC(=O)C1CC2(CC(NC(=O)CCc3ccc4c(n3)NCCC4)C2)C1)c1cc(Cl)cc(Cl)c1 (stereo partly shown) [Example 30] |
| 4 nM | COc1ccc([C@H](CC(=O)O)N2CC(c3ccc(-c4ccc5c(n4)NCCC5)cc3)C2=O)cn1 (single isomer, unassigned) [Example 184] |
| 5.7 nM | O=C(O)CC(NC(=O)[C@H]1C[C@H](CCc2ccc3c(n2)NCCC3)C1)c1cnc(C(F)(F)F)nc1 (single isomer, unassigned) [Example 193, 3-(trans-3-(2-(5,6,7,8-Tetrahydro-1,8-naphthyridin-2-yl)ethyl)cyclobutane-1-carboxamido)-3-(2-(trifluoromethyl)pyrimidin-5-yl)propanoic acid] |
| 0.93 nM | O=C(O)C[C@H](NC(=O)C1(F)CN(CCc2ccc3c(n2)NCCC3)C1)c1ccc2c(c1)OCC2 [Example 81] |
| 5.6 nM | COc1ccc(C(CC(=O)O)N2CC3(CC(Cc4ccc5c(n4)NCCC5)C3)C2)cc1F (stereo not shown) [Example 210, 3-(3-fluoro-4-methoxyphenyl)-3-(6-((5,6,7,8-tetrahydro-1,8-naphthyridin-2-yl)methyl)-2-azaspiro[3.3]heptan-2-yl)propanoic acid] |

| IC50 | Compound |
| --- | --- |
| 4 nM | COc1ccc([C@H](CC(=O)O)N2CC(CCCc3ccc4c(n3)NCCC4)C2)cn1 [Example 169] |
| 20 nM | N[C@@H](CNC(=O)C1CN(CCc2ccc3c(n2)NCCC3)C1)C(=O)O [Example 55] |
| 380 nM | Cc1cc(C)c(S(=O)(=O)N[C@@H](CNC(=O)C2CC3(CC(NC(=O)CCc4ccc5c(n4)NCCC5)C3)C2)C(=O)O)c(C)c1 (stereo partly shown) [Example 28] |
| 68 nM | O=C(N[C@@H](CC(=O)N1CC(CCc2ccc3c(n2)NCCC3)C1)C(=O)O)OCC1CCC1 [Example 174, (S)-2-(((cyclobutylmethoxy)carbonyl)amino)-4-oxo-4-(3-(2-(5,6,7,8-tetrahydro-1,8-naphthyridin-2-yl)ethyl)azetidin-1-yl)butanoic acid] |
| 1.1 nM | O=C(O)C[C@@H](c1ccc(F)c(F)c1)N1CC(CCCCc2ccc3c(n2)NCCC3)C1 [Example 154] |
| 448 nM | COc1ccc([C@H](CC(=O)O)N2CC(C)(CCCCc3ccc4c(n3)NCCC4)C2=O)cn1 (single isomer, unassigned) [Example 177] |
| 55 nM | COc1ccc([C@H](CC(=O)O)N2CC(CCCc3ccc4c(n3)NCCC4)C2=O)cc1F (single isomer, unassigned) [Example 179] |
| 21 nM | O=C(O)CC(NC(=O)[C@H]1C[C@H](CCc2ccc3c(n2)NCCC3)C1)c1cnc(C(F)(F)F)nc1 (single isomer, unassigned) [Example 194, 3-(trans-3-(2-(5,6,7,8-Tetrahydro-1,8-naphthyridin-2-yl)ethyl)cyclobutane-1-carboxamido)-3-(2-(trifluoromethyl)pyrimidin-5-yl)propanoic acid] |
| 3.8 nM | Cc1cc(C)c(S(=O)(=O)N[C@@H](CNC(=O)[C@H]2C[C@@H](Cc3ccc4c(n3)NCCC4)C2)C(=O)O)c(C)c1 [Example 200, (S)-3-(cis-3-((5,6,7,8-Tetrahydro-1,8-naphthyridin-2-yl)methyl)-cyclobutane-1-carboxamido)-2-((2,4,6-trimethylphenyl)sulfonamido)-propanoic acid] |
| 1.3 nM | Cc1cc(C)c(S(=O)(=O)N[C@@H](CNC(=O)C2CC3(CC(CCc4ccc5c(n4)NCCC5)C3)C2)C(=O)O)c(C)c1 (stereo partly drawn) [Example 5, (S)-3-(6-(2-(5,6,7,8-Tetrahydro-1,8-naphthyridin-2-yl)ethyl)spiro[3.3]heptane-2-carboxamido)-2-((2,4,6-trimethylphenyl)sulfonamido)propanoic acid] |
| 8.5 nM | COc1ccc(C(CC(=O)O)C2CN(CCCCc3ccc4c(n3)NCCC4)C2)cc1F (stereo not shown) [Example 143] |
| 160 nM | CCOC(=O)[C@H](CNC(=O)C1CC2(C1)CN(CCc1ccc3c(n1)NCCC3)C2)NS(=O)(=O)c1c(C)cc(C)cc1C [Example 47] |
| 4.6 nM | COc1ccc(C(CC(=O)O)N2CC(OCCCc3ccc4c(n3)NCCC4)C2)cn1 (stereo not shown) [Example 134, 3-(6-methoxypyridin-3-yl)-3-(3-(3-(5,6,7,8-tetrahydro-1,8-naphthyridin-2-yl)propoxy)azetidin-1-yl)propanoic acid, 2 TFA] |
| 3.9 nM | O=C(O)C[C@@H](c1ccc(F)c(F)c1)N1CC(CCCCc2ccc3c(n2)NCCC3)C1=O (stereo partly shown) [Example 112] |
| 1 nM | COc1ccc([C@H](CC(=O)O)NC(=O)[C@H]2C[C@@H](CCc3ccc4c(n3)NCCC4)C2)cn1 [Example 60] |
| 6.5 nM | O=C(O)CC(c1ccc2nccnc2c1)C1CC(NCCCc2ccc3c(n2)NCCC3)C1 (stereo not shown) [Example 148] |
| 3.8 nM | COc1ccc(C(CC(=O)O)C2(F)CN(CCCCc3ccc4c(n3)NCCC4)C2)cc1F (stereo not shown) [Example 22, 3-(3-Fluoro-1-(4-(5,6,7,8-tetrahydro-1,8-naphthyridin-2-yl)butyl)azetidin-3-yl)-3-(3-fluoro-4-methoxyphenyl)propanoic acid] |
